Measured values taken from publication PMC3985514 (Biochemistry, 2014).
“And” between values parts separate entries of the source, which are not always exact repeats. Identical values can stand only once. Like-named read-outs stand apart in the source and are kept apart here.

Molecular target: Mtb NDH-2 (Mycobacterium tuberculosis, UniProt P95160)
Assay type: biochemical

Mtb NDH-2, sequence (P95160 whole entry): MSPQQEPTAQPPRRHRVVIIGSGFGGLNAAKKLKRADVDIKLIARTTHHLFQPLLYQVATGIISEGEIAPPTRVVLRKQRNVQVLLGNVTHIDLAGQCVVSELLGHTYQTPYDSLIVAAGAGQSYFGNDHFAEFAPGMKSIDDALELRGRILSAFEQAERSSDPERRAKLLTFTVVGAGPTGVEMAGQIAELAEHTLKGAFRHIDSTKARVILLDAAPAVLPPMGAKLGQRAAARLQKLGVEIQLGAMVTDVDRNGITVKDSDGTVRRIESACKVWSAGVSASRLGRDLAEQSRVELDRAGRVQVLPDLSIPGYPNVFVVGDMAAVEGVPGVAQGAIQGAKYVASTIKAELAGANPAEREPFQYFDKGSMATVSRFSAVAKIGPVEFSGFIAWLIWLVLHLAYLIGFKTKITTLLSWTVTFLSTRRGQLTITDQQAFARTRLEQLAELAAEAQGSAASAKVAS

SMILES: COC1=C(OC)C(=O)C(C)=CC1=O [UQ0]
- kcat: 570.0 ± 200 s^–1
- kcat ([…], NADH oxidation with the quinone as electron acceptor, [NADH] varied): 580.0 ± 170 s^–1
- kcat ([…], ratio plot, [UQ0] = 6.25[NADH]): 330 ± 15 s^–1
- Vmax (membrane-bound NDH-2, both with and without UQ1H2): 0.12 ± 0.01 A340 min^–1 nM^–1
- Km (read-out: apparent KM value for UQ0, membrane-bound NDH-2, absence of UQ1H2 (Figure 6C)): 350 ± 7 µM

SMILES: COc1c(O)c(C)c(CC=C(C)C)c(O)c1OC [UQ1H2]
- inhibition (1.0 mM UQ1H2, 0.05 mM UQ1 as electron acceptor, membrane-bound NDH-2): 30 ± 10%
- increase in activity (UQ0 as electron acceptor, membrane-bound NDH-2): up to 5 fold

SMILES: NC(=O)C1=CN([C@@H]2O[C@H](COP(=O)(O)OP(=O)(O)OC[C@H]3O[C@@H](n4cnc5c(N)ncnc54)[C@H](O)[C@@H]3O)[C@@H](O)[C@H]2O)C=CC1 [NADH, nicotinamide adenine dinucleotide, reduced form]
- Km (read-out: KM for NADH (average), membrane-bound NDH-2 with UQ0, average): 280 µM
- Km (read-out: KM^NADH): 240 µM and 320 µM
